Values quoted from earlier work in patent publication US11396520B2, “Synthesis of the organoarsenical antibiotic arsinothricin and derivatives thereof” (THE FLORIDA INTERNATIONAL UNIVERSITY BOARD OF TRUSTEES, priority 2020, dated 2022).

How the values were obtained:
Mycobacterium bovis BCG = settings: M. bovis BCG; stated in words, no test described
glutamine synthetase = settings: stated in words, no test described
[1] = tested on: Gram-positive and Gram-negative bacteria; settings: stated in words, no test described
[2] = tested on: carbapenem-resistant Enterobacter cloacae (CRE); settings: WHO ESKAPE pathogen CRE; stated in words, no test described

NC(CC[AsH](=O)CO)C(=O)O (stereo not shown) [AST, 2-amino-4-(hydroxymethylarsinoyl)-butanoic acid]
antibiotic activity (Mycobacterium bovis BCG): effective against | inhibition of glutamine synthetase (glutamine synthetase): inhibits glutamine synthetase | antibiotic activity [1]: effective against both Gram-positive and Gram-negative bacteria | antibiotic activity [2]: effective against
